Values of other authors, collected in US20070264289A1, “COMPOSITIONS AND METHODS OF ADMINISTERING DOXEPIN TO MUCOSAL TISSUE” (EOT Research Inc., priority 2003, published 2007).
Counter-ions that a name gives are not always drawn.

Experiments:
[1] = metabolite formed in the liver after systemic absorption of doxepin
[2] = systemic doxepin; drowsiness in a significant number of patients at this range

SMILES | half-life [1] [h] | target plasma therapeutic range for treatment of depression [2] [ng/mL]
CNCCC=C1c2ccccc2COc2ccccc21 [Desmethyldoxepin, desmethyldoxepin] | 28 to 52 | –
CN(C)CCC=C1c2ccccc2COc2ccccc21 [doxepin, N,N-dimethyldibenz(b,e)oxepin-propylamine hydrochloride] | – | 30 to 150
